Test results: the NIST ThermoML archive (doi:10.1016/j.jct.2017.08.004)

What was measured:
[1] = Molar enthalpy of transition or fusion; conditions: Crystal; DSC
[2] = for molar entropy: 101.33 kPa; for Normal melting temperature: DTA

OC[C@@H](O)[C@H](O)[C@@H](O)CO [xylitol]
Conditions	Molar enthalpy of transition or fusion [kcal/mol]
[1]	9.44

[2]
Conditions	molar entropy [J/K/mol]
1 K, Crystal, relaxation calorimetry	0.0003173
2 K, Crystal, relaxation calorimetry	0.002178
3 K, Crystal, relaxation calorimetry	0.007217
4 K, Crystal, relaxation calorimetry	0.01724
5 K, Crystal, relaxation calorimetry	0.03429
6 K, Crystal, relaxation calorimetry	0.06064
7 K, Crystal, relaxation calorimetry	0.09884
8 K, Crystal, relaxation calorimetry	0.1517
9 K, Crystal, relaxation calorimetry	0.2221
10 K, Crystal, relaxation calorimetry	0.3121
15 K, Crystal, relaxation calorimetry	1.099
20 K, Crystal, relaxation calorimetry	2.464
25 K, Crystal, relaxation calorimetry	4.334
30 K, Crystal, relaxation calorimetry	6.612
35 K, Crystal, relaxation calorimetry	9.217
40 K, Crystal, relaxation calorimetry	12.09
45 K, Crystal, relaxation calorimetry	15.19
50 K, Crystal, relaxation calorimetry	18.47
55 K, Crystal, relaxation calorimetry	21.88
60 K, Crystal, relaxation calorimetry	25.4
65 K, Crystal, relaxation calorimetry	29.01
70 K, Crystal, relaxation calorimetry	32.7
75 K, Crystal, relaxation calorimetry	36.44
80 K, Crystal, relaxation calorimetry	40.21
85 K, Crystal, relaxation calorimetry	44.01
90 K, Crystal, relaxation calorimetry	47.82
95 K, Crystal, relaxation calorimetry	51.65
100 K, Crystal, relaxation calorimetry	55.48
110 K, Crystal, relaxation calorimetry	63.13
120 K, Crystal, relaxation calorimetry	70.74
130 K, Crystal, relaxation calorimetry	78.31
140 K, Crystal, relaxation calorimetry	85.82
150 K, Crystal, relaxation calorimetry	93.27
160 K, Crystal, relaxation calorimetry	100.65
170 K, Crystal, relaxation calorimetry	107.96
180 K, Crystal, relaxation calorimetry	115.21
190 K, Crystal, relaxation calorimetry	122.4
200 K, Crystal, relaxation calorimetry	129.55
210 K, Crystal, relaxation calorimetry	136.64
220 K, Crystal, relaxation calorimetry	143.7
230 K, Crystal, relaxation calorimetry	150.72
240 K, Crystal, relaxation calorimetry	157.72
250 K, Crystal, relaxation calorimetry	164.69
260 K, Crystal, relaxation calorimetry	171.65
270 K, Crystal, relaxation calorimetry	178.59
273.15 K, Crystal, relaxation calorimetry	180.78
280 K, Crystal, relaxation calorimetry	185.53
290 K, Crystal, relaxation calorimetry	192.47
298.15 K, Crystal, relaxation calorimetry	198.13
300 K, Crystal, relaxation calorimetry	199.41
305 K, Crystal, Small sample (50 mg) DSC	202.93
310 K, Crystal, Small sample (50 mg) DSC	206.47
315 K, Crystal, Small sample (50 mg) DSC	210.02
320 K, Crystal, Small sample (50 mg) DSC	213.58
325 K, Crystal, Small sample (50 mg) DSC	217.15
330 K, Crystal, Small sample (50 mg) DSC	220.72
335 K, Crystal, Small sample (50 mg) DSC	224.31
340 K, Crystal, Small sample (50 mg) DSC	227.9
345 K, Crystal, Small sample (50 mg) DSC	231.52
350 K, Crystal, Small sample (50 mg) DSC	235.17
355 K, Crystal, Small sample (50 mg) DSC	238.92
360 K, Crystal, Small sample (50 mg) DSC	243.05
380 K, Liquid, Small sample (50 mg) DSC	367.99
385 K, Liquid, Small sample (50 mg) DSC	373.77
390 K, Liquid, Small sample (50 mg) DSC	379.42
395 K, Liquid, Small sample (50 mg) DSC	385
400 K, Liquid, Small sample (50 mg) DSC	390.52
405 K, Liquid, Small sample (50 mg) DSC	395.99
410 K, Liquid, Small sample (50 mg) DSC	401.41
415 K, Liquid, Small sample (50 mg) DSC	406.78
420 K, Liquid, Small sample (50 mg) DSC	412.1
425 K, Liquid, Small sample (50 mg) DSC	417.37
430 K, Liquid, Small sample (50 mg) DSC	422.59
435 K, Liquid, Small sample (50 mg) DSC	427.75

Conditions	Normal melting temperature [°C]
[2], Crystal	93.0

OC[C@@H](O)[C@@H](O)[C@H](O)[C@H](O)CO [D-mannitol]
Conditions	Molar enthalpy of transition or fusion [kcal/mol]
[1]	13.3

[2]
Conditions	molar entropy [J/K/mol]
1 K, Crystal, relaxation calorimetry	0.000631
2 K, Crystal, relaxation calorimetry	0.002978
3 K, Crystal, relaxation calorimetry	0.008828
4 K, Crystal, relaxation calorimetry	0.02011
5 K, Crystal, relaxation calorimetry	0.03893
6 K, Crystal, relaxation calorimetry	0.06761
7 K, Crystal, relaxation calorimetry	0.1087
8 K, Crystal, relaxation calorimetry	0.165
9 K, Crystal, relaxation calorimetry	0.2395
10 K, Crystal, relaxation calorimetry	0.3351
15 K, Crystal, relaxation calorimetry	1.202
20 K, Crystal, relaxation calorimetry	2.796
25 K, Crystal, relaxation calorimetry	5.087
30 K, Crystal, relaxation calorimetry	7.955
35 K, Crystal, relaxation calorimetry	11.26
40 K, Crystal, relaxation calorimetry	14.89
45 K, Crystal, relaxation calorimetry	18.76
50 K, Crystal, relaxation calorimetry	22.8
55 K, Crystal, relaxation calorimetry	26.97
60 K, Crystal, relaxation calorimetry	31.23
65 K, Crystal, relaxation calorimetry	35.57
70 K, Crystal, relaxation calorimetry	39.94
75 K, Crystal, relaxation calorimetry	44.34
80 K, Crystal, relaxation calorimetry	48.76
85 K, Crystal, relaxation calorimetry	53.19
90 K, Crystal, relaxation calorimetry	57.61
95 K, Crystal, relaxation calorimetry	62.02
100 K, Crystal, relaxation calorimetry	66.42
110 K, Crystal, relaxation calorimetry	75.17
120 K, Crystal, relaxation calorimetry	83.84
130 K, Crystal, relaxation calorimetry	92.42
140 K, Crystal, relaxation calorimetry	100.91
150 K, Crystal, relaxation calorimetry	109.31
160 K, Crystal, relaxation calorimetry	117.62
170 K, Crystal, relaxation calorimetry	125.86
180 K, Crystal, relaxation calorimetry	134.02
190 K, Crystal, relaxation calorimetry	142.11
200 K, Crystal, relaxation calorimetry	150.14
210 K, Crystal, relaxation calorimetry	158.13
220 K, Crystal, relaxation calorimetry	166.06
230 K, Crystal, relaxation calorimetry	173.95
240 K, Crystal, relaxation calorimetry	181.8
250 K, Crystal, relaxation calorimetry	189.63
260 K, Crystal, relaxation calorimetry	197.43
270 K, Crystal, relaxation calorimetry	205.2
273.15 K, Crystal, relaxation calorimetry	207.65
280 K, Crystal, relaxation calorimetry	212.96
290 K, Crystal, relaxation calorimetry	220.71
298.15 K, Crystal, relaxation calorimetry	227.01
300 K, Crystal, relaxation calorimetry	228.44
305 K, Crystal, Small sample (50 mg) DSC	232.31
310 K, Crystal, Small sample (50 mg) DSC	236.19
315 K, Crystal, Small sample (50 mg) DSC	240.08
320 K, Crystal, Small sample (50 mg) DSC	243.99
325 K, Crystal, Small sample (50 mg) DSC	247.9
330 K, Crystal, Small sample (50 mg) DSC	251.82
335 K, Crystal, Small sample (50 mg) DSC	255.74
340 K, Crystal, Small sample (50 mg) DSC	259.67
345 K, Crystal, Small sample (50 mg) DSC	263.61
350 K, Crystal, Small sample (50 mg) DSC	267.55
355 K, Crystal, Small sample (50 mg) DSC	271.49
360 K, Crystal, Small sample (50 mg) DSC	275.43
365 K, Crystal, Small sample (50 mg) DSC	279.37
370 K, Crystal, Small sample (50 mg) DSC	283.31
375 K, Crystal, Small sample (50 mg) DSC	287.25
380 K, Crystal, Small sample (50 mg) DSC	291.19
385 K, Crystal, Small sample (50 mg) DSC	295.12
390 K, Crystal, Small sample (50 mg) DSC	299.04
395 K, Crystal, Small sample (50 mg) DSC	302.96
400 K, Crystal, Small sample (50 mg) DSC	306.87
405 K, Crystal, Small sample (50 mg) DSC	310.78
410 K, Crystal, Small sample (50 mg) DSC	314.68
415 K, Crystal, Small sample (50 mg) DSC	318.58
420 K, Crystal, Small sample (50 mg) DSC	322.47
425 K, Crystal, Small sample (50 mg) DSC	326.38
430 K, Crystal, Small sample (50 mg) DSC	330.31
435 K, Crystal, Small sample (50 mg) DSC	334.63
450 K, Liquid, Small sample (50 mg) DSC	463.49
455 K, Liquid, Small sample (50 mg) DSC	469.61
460 K, Liquid, Small sample (50 mg) DSC	475.21
465 K, Liquid, Small sample (50 mg) DSC	480.73
470 K, Liquid, Small sample (50 mg) DSC	486.2
475 K, Liquid, Small sample (50 mg) DSC	491.61
480 K, Liquid, Small sample (50 mg) DSC	496.96
485 K, Liquid, Small sample (50 mg) DSC	502.25
490 K, Liquid, Small sample (50 mg) DSC	507.49

Conditions	Normal melting temperature [°C]
[2], Crystal	167.47
